Measured values from patent US20120034613A1, “Apparatus and Method for Testing Relationships Between Gene Expression and Physical Appearance of Skin” (NSE Products, Inc., priority 2010, published 2012).

Tested on: EpidermFT™ Skin Model (EFT-400) full thickness skin cultures
Test: Affymetrix GeneChip HG U133 Plus 2.0 microarray global gene expression, agent-exposed vs untreated skin cultures
Format: cell-based, human
Conditions: Salicin 0.5% vs Untreated Control

## OCc1ccccc1O[C@@H]1O[C@H](CO)[C@@H](O)[C@H](O)[C@H]1O [Salicin, 2-(Hydroxymethyl)phenyl β-D-glucospyranoside]
24 hr treatment
  Fold change TMEM38B (222736_s_at): 2.316
  Fold change TMEM39A (218615_s_at): 2.497
  Fold change TMEM39A (222690_s_at): 2.47
  Fold change TMTC1 (226322_at): 2.647
  Fold change TMTC1 (226931_at): 2.583
  Fold change TNC (216005_at): 2.719
  Fold change TNFAIP6 (206026_s_at): 2.52
  Fold change TNIP3 (220655_at): 2.654
  Fold change TRPA1 (217590_s_at): 2.602
  Fold change TRPC4 (224220_x_at): 2.708
  Fold change UBE2B (239163_at): 2.636
  Fold change UGCGL2 (218801_at): 2.4
  Fold change UST (205139_s_at): 2.454
  Fold change WIPI1 (203827_at): 2.744
  Fold change XPO1 (235927_at): 2.529
  Fold change ZFAND5 (217649_at): 2.438
  Fold change ZFP36L1 (211965_at): 2.705
  Fold change ZNF281 (228785_at): 2.627
  Fold change ZNF331 (219228_at): 2.442
  Fold change ZNF697 (227080_at): 2.599
24 hr, direction down
  Fold change ABCD3 (202850_at): 2.077
  Fold change ABCG4 (207593_at): 2.004
  Fold change ACACA (212186_at): 2.091
  Fold change ACAD9 (224160_s_at): 2.034
  Fold change ACOX3 (204241_at): 2.001
  Fold change ADAMTSL4 (226071_at): 2.137
  Fold change ADARB1 (203865_s_at): 2.089
  Fold change AHNAK (211986_at): 2.023
  Fold change AIF1L (223075_s_at): 2.169
  Fold change AK1 (202587_s_at): 2.078
  Fold change AK3L1 /// AK3L2 (204347_at): 2.026
  Fold change ALDH5A1 (203609_s_at): 2.111
  Fold change ALOX12 (207206_s_at): 2.124
  Fold change AMACR (209426_s_at): 2.021
  Fold change AMOTL2 (203002_at): 2.089
  Fold change ANK3 (207950_s_at): 2.049
  Fold change APPL2 (218218_at): 2.013
  Fold change AQP3 (203747_at): 2.032
  Fold change ARHGAP27 (225618_at): 2.077
  Fold change ARL17 /// ARL17P1 (1555964_at): 2.016
  Fold change ARPC1A (200950_at): 2.042
  Fold change ASAP3 (222236_s_at): 2.079
  Fold change ATP2B4 (212136_at): 2.118
  Fold change ATXN3 (205416_s_at): 2.164
  Fold change BAIAP2 (205293_x_at): 2.03
  Fold change BCL11A (1559078_at): 2.151
  Fold change BCL11B (222895_s_at): 2.021
  Fold change BICD2 (1553021_s_at): 2.09
  Fold change BLCAP (201032_at): 2.077
  Fold change C1orf46 (216718_at): 2.083
  Fold change C1orf71 (225551_at): 2.006
  Fold change C1orf97 (224443_at): 2.02
  Fold change C2orf7 (223312_at): 2.047
  Fold change C4orf3 (224605_at): 2.002
  Fold change C6orf105 (215100_at): 2.121
  Fold change C12orf29 (228378_at): 2.164
  Fold change C15orf52 (227272_at): 2.042
  Fold change C17orf67 (236863_at): 2.03
  Fold change C20orf177 (225313_at): 2.134
  Fold change CALM1 /// CALM2 /// CALM3 (200653_s_at): 2.056
  Fold change CALM1 /// CALM2 /// CALM3 (209563_x_at): 2.029
  Fold change CAT (211922_s_at): 2.095
  Fold change CENPT (218148_at): 2.074
  Fold change CEP76 (52285_f_at): 2.004
  Fold change CERK (218421_at): 2.138
  Fold change CKB (200884_at): 2.055
  Fold change CLCN5 (232127_at): 2.126
  Fold change CLDN7 (202790_at): 2.043
  Fold change CLIP1 (1558924_s_at): 2.123
  Fold change CLN8 (229958_at): 2.102
  Fold change CNDP2 (217752_s_at): 2.002
  Fold change CNTN1 (211203_s_at): 2.105
  Fold change CSNK2A2 (203575_at): 2.095
  Fold change CTAGE4 (215549_x_at): 2.108
  Fold change CXCL12 (203666_at): 2.074
  Fold change CYB5R1 (202263_at): 2.119
  Fold change CYCS (244546_at): 2.168
  Fold change DBI (211070_x_at): 2.056
  Fold change DDR1 (1007_s_at): 2.104
  Fold change DDX50 (1568815_a_at): 2.115
  Fold change DHRS4 /// DHRS4L2 (218021_at): 2.062
  Fold change DMD (203881_s_at): 2.165
  Fold change DOPEY2 (205248_at): 2.103
  Fold change ELOVL3 (234513_at): 2.048
  Fold change EPCAM (201839_s_at): 2.093
  Fold change EPHB4 (202894_at): 2.087
  Fold change EPHB6 (204718_at): 2.036
  Fold change ERI2 (213365_at): 2.167
  Fold change F2RL1 (206429_at): 2.099
  Fold change FAM33A (225684_at): 2.022
  Fold change FAR1 (224865_at): 2.117
  Fold change FBXO3 (229955_at): 2.107
  Fold change FBXO3 (238686_at): 2.147
  Fold change FBXO9 (212991_at): 2.083
  Fold change FBXO9 (1559094_at): 2.099
  Fold change FIGNL1 (222843_at): 2.071
  Fold change FKBP1B (206857_s_at): 2.113
  Fold change FKBPL (219187_at): 2.09
  Fold change FRAG1 (41858_at): 2.049
  Fold change FUCA1 (202838_at): 2.147
  Fold change FUT2 (210608_s_at): 2.05
  Fold change GAB1 (225998_at): 2.071
  Fold change GAS7 (202192_s_at): 2.035
  Fold change GDAP1 (226269_at): 2.153
  Fold change GNG4 (205184_at): 2.054
  Fold change GPR1 (214605_x_at): 2.109
  Fold change GPR137B (204137_at): 2.046
  Fold change GSN (200696_s_at): 2.089
  Fold change HES5 (239230_at): 2.078
  Fold change HIGD1A (217845_x_at): 2.017
  Fold change HN1 (222396_at): 2.105
  Fold change HN1L (212115_at): 2.003
  Fold change HSDL2 (209512_at): 2.126
  Fold change ID2 (201565_s_at): 2.158
